One data set concerns MCF7. The experiment in a line: Cytotoxicity against human MCF7 cells assessed as cell viability by MTT assay. In kind it is functional, cell-based. Background: Formazan colour is commonly taken as a measure of viable cells.
Data set [1] concerns 4T1. Kind of data set: Cytotoxicty against mouse 4T1 cells assessed as cell viability by MTT assay. In kind it is functional, cell-based.
Data set [2] concerns 4T1. The experiment in a line: Induction of immunogenic cell death in mouse 4T1 cells assessed as increase in CRT expression by flow cytometry analysis (reference value: 2.55%). In kind it is functional.
Data set [3] deals with 4T1. The experiment in a line: Induction of ROS production in mouse 4T1 cells assessed as increase in intracellular ROS level by […] staining based flow cytometry (reference value: 7.8%). In kind it is functional. (Flow cytometry measures light scatter and fluorescence of single cells or particles in a stream.)
For data set [4], the system named is 4T1. Kind of data set: Induction of immunogenic cell death in mouse 4T1 cells assessed as increase in CRT exposure on cell surface by measuring increase in red fluorescence by CLSM analysis (reference value: 2.55%). In kind it is functional.
The next data set relates to A549. The experiment in a line: Cytotoxicity against human A549 cells assessed as cell viability by MTT assay. The data set is classed as functional, cell-based.
Data set [5] has as its system 4T1. Kind of data set: Induction of apoptosis in mouse 4T1 cells assessed as late apoptotic cells by Annexin V-FITC and PI staining based flow cytometry analysis (reference value: 0.13 %). In kind it is functional.
The test system of the next data set is Mitochondrial membrane. The experiment in a line: Induction of mitochondrial membrane potential loss in mouse 4T1 cells assessed as increase in green fluorescence by JC-1 staining based flow cytometric analysis (reference value: 7.4 %). In kind it is cell membranes.
Data set [6] has as its system 4T1. The experiment in a line: Induction of apoptosis in mouse 4T1 cells assessed as early apoptotic cells by Annexin V-FITC and PI staining based flow cytometry analysis(reference value: 3.60 %). In kind it is functional.
The test system of data set [7] is 4T1. The experiment in a line: Induction of apoptosis in mouse 4T1 cells assessed as viable cells by Annexin V-FITC and PI staining based flow cytometry analysis (reference value: 96.2 %). In kind it is functional.
The subject of data set [8] is 4T1. Kind of data set: Induction of apoptosis in mouse 4T1 cells assessed as necrotic cells by Annexin V-FITC and PI staining based flow cytometry analysis (reference value: 0.085 %). The data set is classed as functional.
For another data set, the system named is U-87 MG. Kind of data set: Cytotoxicity against human U87 cells assessed as cell viability by MTT assay. In kind it is functional, cell-based, U-87MG ATCC.
A further data set relates to HeLa. The experiment in a line: Cytotoxicity against human Hela cells assessed as cell viability by MTT assay. The data set is classed as functional, cell-based.
In data set [9] the test system is 4T1. Kind of data set: Cytotoxicty against mouse 4T1 cells assessed as cell death by measuring red staining by calcein/PI staining based live/dead staining analysis. The data set is classed as functional.
Data set [10] is described as follows: Drug localization in mitochondria of mouse 4T1 cells assessed as fluorescence intensity measured using pearson co-efficient incubated for 10 hrs by mito-tracker red fluorescent dye based confocal laser scanning microscopic analysis. In kind it is ADME. As to conditions: 4t1, 10 h.

The source made the active and inactive calls. The calls are words filed in the database; no cut-off is given here.

By IC50 is commonly meant the concentration that inhibits the measured activity by half. As to `C[C@H]1[C@H](OC(=O)CCC(=O)O)O[C@@H]2O[C@@]3(C)CC[C@H]4[C@H](C)CC[C@@H]1[C@@]24OO3` [ARTESUNATE], the concentration for half-maximal inhibition (IC50) in the data set with MCF7 turned out to be 12.7 µM; in the data set with 4T1 [1], 12 µM; with A549, 14.7 µM; in the data set on U-87 MG, 13.5 µM; in the data set with HeLa, 15.4 µM. The Activity stood at 9.59% with 4T1 [2]; 14.3% in the data set on 4T1 [3]; 9.59% in the data set with 4T1 [4]; 2.24% with 4T1 [5]; 14.8% in the data set with Mitochondrial membrane; 6.46% with 4T1 [6]. Also, the Activity with 4T1 [7] is recorded as 90.6%; in the data set with 4T1 [8] it was 0.71%.

Consider `CC(=O)O[C@H]1C(=O)[C@@]2(C)[C@H]([C@H](OC(=O)c3ccccc3)[C@]3(O)C[C@H](OC(=O)[C@H](O)[C@@H](NC(=O)c4ccccc4)c4ccccc4)C(C)=C1C3(C)C)[C@]1(OC(C)=O)CO[C@@H]1C[C@@H]2O` [PACLITAXEL], for which, in the data set on 4T1 [1], the 50% inhibitory concentration (IC50) is 3.15 µM.

In the case of `C[C@H]1[C@H](OC(=O)CCC(=O)OCCCOC(=O)c2cc(O)c3c(c2)C(=O)c2cccc(O)c2C3=O)O[C@@H]2O[C@@]3(C)CC[C@H]4[C@H](C)CC[C@@H]1[C@@]24OO3`, in the data set on 4T1 [9], the result was Active. Also, the IC50 turned out to be 2.43 µM in the data set with MCF7; 1.41 µM with 4T1 [1]; 2.93 µM in the data set with A549; 2.56 µM in the data set on U-87 MG; 2.9 µM in the data set with HeLa. For the same molecule, the Activity came out at 31% with 4T1 [3]; 21.6% in the data set on 4T1 [5]; 37.3% with Mitochondrial membrane; 14.9% in the data set on 4T1 [6]; 60.1% with 4T1 [7]; 3.35% in the data set with 4T1 [8]. Besides, in [10], the Flu intensity is given as 0.96.

As to `C[C@H]1[C@H](OC(=O)CCC(=O)OCCCCCCOC(=O)c2cc(O)c3c(c2)C(=O)c2cccc(O)c2C3=O)O[C@@H]2O[C@@]3(C)CC[C@H]4[C@H](C)CC[C@@H]1[C@@]24OO3`, in the data set on 4T1 [9], the outcome was Active. Besides, the IC50 was determined as 2.19 µM in the data set on MCF7; 1.8 µM with 4T1 [1]; 3.29 µM in the data set with A549; 2.69 µM with U-87 MG; 3.11 µM in the data set with HeLa. Further, the Activity worked out at 32.7% in the data set with 4T1 [3]; 17.7% with 4T1 [5]; 38.1% in the data set with Mitochondrial membrane; 14.2% in the data set with 4T1 [6]; 65.8% with 4T1 [7]; 2.37% in the data set on 4T1 [8]. For the same molecule, the Flu intensity in data set [10] was found to be 0.95.

Regarding `O=C(O)c1cc(O)c2c(c1)C(=O)c1cccc(O)c1C2=O` [RHEIN], the half-maximal inhibitory concentration (IC50) was 56.5 µM in the data set on MCF7; 51.5 µM in the data set on 4T1 [1]; 53.4 µM in the data set on A549; 47.8 µM in the data set on U-87 MG; 50.8 µM in the data set with HeLa. The Activity worked out at 3.82% with 4T1 [2]; 11.8% in the data set on 4T1 [3]; 3.82% in the data set on 4T1 [4]; 0.86% in the data set on 4T1 [5]; 11.4% in the data set on Mitochondrial membrane; 4.28% in the data set on 4T1 [6]. Besides, the Activity was determined as 94% in the data set with 4T1 [7] and 0.83% in the data set with 4T1 [8]. Besides, in data set [10], the Flu intensity worked out at 0.93.

In the case of `C[C@H]1[C@H](OC(=O)CCC(=O)OCCOC(=O)c2cc(O)c3c(c2)C(=O)c2cccc(O)c2C3=O)O[C@@H]2O[C@@]3(C)CC[C@H]4[C@H](C)CC[C@@H]1[C@@]24OO3`, the result with 4T1 [9] was Active. Moreover, the IC50 with MCF7 was found to be 2.23 µM; with 4T1 [1], 1.4 µM; in the data set with A549, 3.01 µM; in the data set with U-87 MG, 2.44 µM; in the data set with HeLa, 2.77 µM. The Activity was 39.6% in the data set on 4T1 [3]; 26.7% in the data set on 4T1 [5]; 39.2% in the data set on Mitochondrial membrane; 13.9% in the data set on 4T1 [6]; 52.6% in the data set with 4T1 [7]; 6.81% in the data set on 4T1 [8]. In addition, the Flu intensity in data set [10] is 0.91.

Consider `C[C@H]1[C@H](OC(=O)CCC(=O)OCCCCCOC(=O)c2cc(O)c3c(c2)C(=O)c2cccc(O)c2C3=O)O[C@@H]2O[C@@]3(C)CC[C@H]4[C@H](C)CC[C@@H]1[C@@]24OO3`, for which, in the data set on 4T1 [9], the result was Active. Also, the IC50 came out at 2.27 µM in the data set with MCF7; 1.68 µM in the data set with 4T1 [1]; 3.19 µM in the data set with A549; 2.91 µM in the data set on U-87 MG; 2.88 µM in the data set with HeLa. The Activity in the data set on 4T1 [3] was found to be 30%; with 4T1 [5], 15.2%; in the data set with Mitochondrial membrane, 36.5%; with 4T1 [6] it was 13%; in the data set on 4T1 [7] it was 69.5%; in the data set with 4T1 [8] it was 2.34%. Further, in [10], the Flu intensity was determined as 0.94.

These data come from ChEMBL document CHEMBL6120988, “Mitochondria-targeting artesunate-rhein conjugates: Linker-modulated cell-permeability, heme-affinity and anticancer activity” (Eur J Med Chem, 2025).
